Experimental data from publication PMC6934184, “Selective DNA-PKcs inhibition extends the therapeutic index of localized radiotherapy and chemotherapy” (The Journal of Clinical Investigation, 2019).

Target: T1, MAP3K10 (MLK2) (Homo sapiens, UniProt Q02779)
T1 construct: purchased Thermo Fisher Scientific (Life Technologies) SelectScreen
Assay: SelectScreen LanthaScreen
Format: binding
Details: read-out: % displacement
In short: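 Percent values come from Thermo SelectScreen profiling of NU5455, combining activity and binding assays. CSF1R was run in Z'LYTE format at Km app ATP, and CAMK1 in Adapta format with ATP listed at 10.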

T1 sequence (Q02779 whole entry): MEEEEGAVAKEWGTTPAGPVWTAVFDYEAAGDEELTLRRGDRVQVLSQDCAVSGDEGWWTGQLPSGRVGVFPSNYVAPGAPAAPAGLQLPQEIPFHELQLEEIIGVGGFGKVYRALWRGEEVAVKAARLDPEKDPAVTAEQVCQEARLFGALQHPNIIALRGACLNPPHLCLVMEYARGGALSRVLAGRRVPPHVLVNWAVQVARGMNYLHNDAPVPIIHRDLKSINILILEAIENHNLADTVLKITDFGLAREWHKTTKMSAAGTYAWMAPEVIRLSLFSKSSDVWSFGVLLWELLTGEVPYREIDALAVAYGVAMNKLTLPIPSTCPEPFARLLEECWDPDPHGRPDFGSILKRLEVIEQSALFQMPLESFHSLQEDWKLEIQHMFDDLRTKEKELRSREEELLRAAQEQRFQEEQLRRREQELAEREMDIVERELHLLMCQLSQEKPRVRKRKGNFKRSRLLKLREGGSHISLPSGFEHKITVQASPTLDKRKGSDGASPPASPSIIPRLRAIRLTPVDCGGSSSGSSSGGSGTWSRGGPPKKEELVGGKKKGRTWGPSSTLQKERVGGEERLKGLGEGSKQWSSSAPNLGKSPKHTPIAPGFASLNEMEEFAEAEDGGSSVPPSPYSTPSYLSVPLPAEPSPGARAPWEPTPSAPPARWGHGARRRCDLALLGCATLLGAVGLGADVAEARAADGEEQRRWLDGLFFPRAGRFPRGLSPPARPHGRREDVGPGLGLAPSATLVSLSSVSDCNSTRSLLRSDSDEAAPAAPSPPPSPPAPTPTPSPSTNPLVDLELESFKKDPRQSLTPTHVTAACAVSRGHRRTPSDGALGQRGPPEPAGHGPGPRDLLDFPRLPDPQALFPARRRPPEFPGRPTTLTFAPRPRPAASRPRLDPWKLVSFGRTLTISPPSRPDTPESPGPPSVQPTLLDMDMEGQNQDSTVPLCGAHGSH

Question: With CN(C(=O)CN1CCOCC1)c1ccc2sc3c(-c4cccc5c(=O)cc(N6CC7CCC(C6)O7)oc45)cccc3c2c1 [NU5455] as the molecule, how does the inhibition at 1 µM read?
Answer: 1.5%
